Tested on: 883617-216-R-J1-PDC complex spheroids, growth, % test/control
Experiment: Anticancer human tumor 883617-216-R-J1-PDC patient-derived bladder carcinoma cell line growth inhibition [AhR]
Conditions: for IC50: curve of first compound; for viability, T/C: stronger effect = lower value
In short: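 Complex tumor spheroids co-cultured with HUVEC and human MSC stroma; AhR antagonists tested in combination with standard-of-care and investigational agents. Top concentration at or near clinical Cmax (else 10 microM), half-log dilutions; growth expressed as percent test/control.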

[1] = second compound 0.1 µM, first compound 0.000316 µM
[2] = second compound 0.1 µM, first compound 0.001 µM
[3] = second compound 0.1 µM, first compound 0.00316 µM
[4] = second compound 0.1 µM, first compound 0.01 µM
[5] = second compound 0.1 µM, first compound 0.0316 µM
[6] = second compound 0.1 µM, first compound 0.1 µM
[7] = second compound 0.316 µM, first compound 0.000316 µM
[8] = second compound 0.316 µM, first compound 0.001 µM
[9] = second compound 0.316 µM, first compound 0.00316 µM
[10] = second compound 0.316 µM, first compound 0.01 µM
[11] = second compound 0.316 µM, first compound 0.0316 µM
[12] = second compound 0.316 µM, first compound 0.1 µM
[13] = second compound 1 µM, first compound 0.000316 µM
[14] = second compound 1 µM, first compound 0.001 µM
[15] = second compound 1 µM, first compound 0.00316 µM
[16] = second compound 1 µM, first compound 0.01 µM
[17] = second compound 1 µM, first compound 0.0316 µM
[18] = second compound 1 µM, first compound 0.1 µM
[19] = second compound 3.16 µM, first compound 0.000316 µM
[20] = second compound 3.16 µM, first compound 0.001 µM
[21] = second compound 3.16 µM, first compound 0.00316 µM
[22] = second compound 3.16 µM, first compound 0.01 µM
[23] = second compound 3.16 µM, first compound 0.0316 µM
[24] = second compound 3.16 µM, first compound 0.1 µM
[25] = second compound 10 µM, first compound 0.000316 µM
[26] = second compound 10 µM, first compound 0.001 µM
[27] = second compound 10 µM, first compound 0.00316 µM
[28] = second compound 10 µM, first compound 0.01 µM
[29] = second compound 10 µM, first compound 0.0316 µM
[30] = second compound 10 µM, first compound 0.1 µM
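Also: exposure lasted 7 days after dosing on day 3 of spheroid growth.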

`O=C(C=Cn1cnc(-c2cc(C(F)(F)F)cc(C(F)(F)F)c2)n1)NNc1cnccn1` + Cc1ccccc1N=Nc1ccc(NC(=O)c2ccnn2C)c(C)c1 showed an IC50 (second compound 0.1 µM) of 443 nM, an IC50 (second compound 0.316 µM) of 442 nM and an IC50 (second compound 1 µM) of 535 nM. It also gave an IC50 (second compound 3.16 µM) of 274 nM, an IC50 (second compound 10 µM) of 268 nM and a viability, T/C (second compound 0.1 µM, first compound 0.00949 µM) of 76.4%. It also gave a viability, T/C (second compound 0.1 µM, first compound 0.03 µM) of 79.8%, a viability, T/C (second compound 0.1 µM, first compound 0.0949 µM) of 61.7% and a viability, T/C (second compound 0.1 µM, first compound 0.3 µM) of 54.5%. The viability, T/C (second compound 0.1 µM, first compound 0.949 µM) was 43.7%, the viability, T/C (second compound 0.1 µM, first compound 3 µM) was 34.4% and the viability, T/C (second compound 0.316 µM, first compound 0.00949 µM) was 72%. It also gave a viability, T/C (second compound 0.316 µM, first compound 0.03 µM) of 62.8%, a viability, T/C (second compound 0.316 µM, first compound 0.0949 µM) of 60.8% and a viability, T/C (second compound 0.316 µM, first compound 0.3 µM) of 49.8%. For the same compound, the viability, T/C (second compound 0.316 µM, first compound 0.949 µM) was 48.6%, the viability, T/C (second compound 0.316 µM, first compound 3 µM) was 36.7% and the viability, T/C (second compound 1 µM, first compound 0.00949 µM) was 70.5%. For the same compound, the viability, T/C (second compound 1 µM, first compound 0.03 µM) was 66.9%, the viability, T/C (second compound 1 µM, first compound 0.0949 µM) was 58% and the viability, T/C (second compound 1 µM, first compound 0.3 µM) was 44.7%. It also gave a viability, T/C (second compound 1 µM, first compound 0.949 µM) of 57.1%, a viability, T/C (second compound 1 µM, first compound 3 µM) of 40.3% and a viability, T/C (second compound 3.16 µM, first compound 0.00949 µM) of 64.1%. It also gave a viability, T/C (second compound 3.16 µM, first compound 0.03 µM) of 63.6%, a viability, T/C (second compound 3.16 µM, first compound 0.0949 µM) of 56.2% and a viability, T/C (second compound 3.16 µM, first compound 0.3 µM) of 46.3%. The viability, T/C (second compound 3.16 µM, first compound 0.949 µM) was 44.5%, the viability, T/C (second compound 3.16 µM, first compound 3 µM) was 35.4% and the viability, T/C (second compound 10 µM, first compound 0.00949 µM) was 65.5%. For the same compound, the viability, T/C (second compound 10 µM, first compound 0.03 µM) was 59.7%, the viability, T/C (second compound 10 µM, first compound 0.0949 µM) was 52.5% and the viability, T/C (second compound 10 µM, first compound 0.3 µM) was 51%. For the same compound, the viability, T/C (second compound 10 µM, first compound 0.949 µM) was 45.4% and the viability, T/C (second compound 10 µM, first compound 3 µM) was 39%.

`Cn1ncnc1C1c2n[nH]c(=O)c3cc(F)cc(c23)NC1c1ccc(F)cc1` (stereo not given) + Cc1ccccc1N=Nc1ccc(NC(=O)c2ccnn2C)c(C)c1 was tested, and the IC50 (second compound 0.1 µM) was > 100 nM, the IC50 (second compound 0.316 µM) was > 100 nM and the IC50 (second compound 1 µM) was > 100 nM. For the same compound, the IC50 (second compound 3.16 µM) was > 100 nM, the IC50 (second compound 10 µM) was > 100 nM and the viability, T/C [1] was 98.1%. The viability, T/C [2] was 97.5%, the viability, T/C [3] was 92.7% and the viability, T/C [4] was 88.7%. For the same compound, the viability, T/C [5] was 89.2%, the viability, T/C [6] was 79.9% and the viability, T/C [7] was 76.4%. For the same compound, the viability, T/C [8] was 85.7%, the viability, T/C [9] was 82.7% and the viability, T/C [10] was 83.4%. The viability, T/C [11] was 71.9%, the viability, T/C [12] was 78.3% and the viability, T/C [13] was 87.5%. It also gave a viability, T/C [14] of 87.1%, a viability, T/C [15] of 86.1% and a viability, T/C [16] of 78.6%. It also gave a viability, T/C [17] of 81%, a viability, T/C [18] of 81.1% and a viability, T/C [19] of 82%. The viability, T/C [20] was 80.1%, the viability, T/C [21] was 78.4% and the viability, T/C [22] was 87.3%. It also gave a viability, T/C [23] of 84.6%, a viability, T/C [24] of 85.5% and a viability, T/C [25] of 70.4%. The viability, T/C [26] was 98.1%, the viability, T/C [27] was 75.8% and the viability, T/C [28] was 81.8%. For the same compound, the viability, T/C [29] was 63.6% and the viability, T/C [30] was 76%.

With `Cn1ncnc1C1c2n[nH]c(=O)c3cc(F)cc(c23)NC1c1ccc(F)cc1` (stereo not given) + CC(CO)NC(=O)c1cc(-c2ccc(Cl)cc2)nn(-c2cnn(C)c2)c1=O the IC50 (second compound 0.1 µM) was > 100 nM, the IC50 (second compound 0.316 µM) was > 100 nM and the IC50 (second compound 1 µM) was > 100 nM. For the same compound, the IC50 (second compound 3.16 µM) was > 100 nM, the IC50 (second compound 10 µM) was > 100 nM and the viability, T/C [1] was 72.7%. For the same compound, the viability, T/C [2] was 96.6%, the viability, T/C [3] was 77.3% and the viability, T/C [4] was 57.7%. The viability, T/C [5] was 55.6%, the viability, T/C [6] was 93% and the viability, T/C [7] was 90.4%. The viability, T/C [8] was 92.8%, the viability, T/C [9] was 78.6% and the viability, T/C [10] was 75.8%. It also gave a viability, T/C [11] of 86%, a viability, T/C [12] of 98.7% and a viability, T/C [13] of 59.7%. For the same compound, the viability, T/C [14] was 92.4%, the viability, T/C [15] was 75.1% and the viability, T/C [16] was 59.8%. For the same compound, the viability, T/C [17] was 87.6%, the viability, T/C [18] was 89.9% and the viability, T/C [19] was 77.3%. The viability, T/C [20] was 51%, the viability, T/C [21] was 123% and the viability, T/C [22] was 82.8%. For the same compound, the viability, T/C [23] was 50.2%, the viability, T/C [24] was 69.2% and the viability, T/C [25] was 78.6%. It also gave a viability, T/C [26] of 68.8%, a viability, T/C [27] of 70.6% and a viability, T/C [28] of 72%. The viability, T/C [29] was 55.7% and the viability, T/C [30] was 80.9%.

Reference: PubChem BioAssay AID1919004 (Molecular Pharmacology Branch, DTP, NCI, 2023)
